According to patent publication US20210330611A1, “THERAPY FOR NEUROLOGICAL DISEASES/DISORDERS” (priority 2020, published 2021):
pIC50: −log10 of the molar value. Where a name gives a salt, the structure may show the parent alone. Read-outs that look alike come from different tables or passages of the source.

Key:
primary rat microglia [1] = system: primary rat microglia;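 for Fibrin % cell toxicity: share of dead cells sized under 150 µm2 at 10 µM in fibrin-stimulated microglia HTS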
[2] = system: fibrin-induced microglia activation; test: Image-based assay of fibrin-induced microglia activation (HTS and dose response); format: cell-based, rat; details: for inhibition at 10 µM: read-out: Fibrin % inhibition
[3] = system: LPS-induced microglia activation; test: Image-based assay of LPS-induced microglia activation (HTS and dose response); format: cell-based, rat; details: for inhibition at 10 µM: read-out: LPS % inhibition
[4] = system: fibrin- and LPS-induced microglia activation; test: cells; format: cell-based, rat
primary rat microglia [5] = system: primary rat microglia; remark: listed apart in the source;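 for Fibrin % cell toxicity: share of dead cells sized under 150 µm2 at 10 µM in fibrin-stimulated microglia HTS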
[6] = primary microglia HTS, fibrin stimulation, compounds at 10 μM
[7] = primary microglia HTS, LPS stimulation, compounds at 10 μM
[8] = classification by fibrin and LPS inhibition, HTS at 10 μM
[9] = Rattus norvegicus, Microglia, primary microglia HTS, fibrin stimulation, compounds at 10 μM
[10] = Rattus norvegicus, Microglia, primary microglia HTS, LPS stimulation, compounds at 10 μM
[11] = Rattus norvegicus, Microglia, primary microglia HTS, fibrin stimulation, increased cell size (>800 μm^2) as marker of activation
[12] = Rattus norvegicus, Microglia, 48 h, primary microglia HTS, LPS stimulation, increased cell size (>800 μm^2) as marker of activation
[13] = quadrant by fibrin and LPS inhibition in HTS of 1907 compounds
[14] = primary microglia HTS, fibrin stimulation, compounds at 10 μM, 10 µM

SMILES	Quadrant (FIG. 5b) [4, 8]	LPS % cell toxicity (primary rat microglia [1]; rat) [%]	inhibition at 10 µM [2, 9] [%]	inhibition at 10 µM [3, 10] [%]	Fibrin % cell toxicity (primary rat microglia [5]; rat) [%]	also measured
O.OC[C@@H](O)[C@@H](O[C@@H]1O[C@H](CO)[C@H](O)[C@H](O)[C@H]1O)[C@H](O)[C@@H](O)CO [D-lactitol Monohydrate]	Q4	–	–	–	–	LPS % cell toxicity (primary rat microglia [1]): 0%; Fibrin % inhibition [2, 6]: 11%; LPS % inhibition [3, 7]: 16%; Fibrin % cell toxicity (primary rat microglia [5]): 1%
CN(C)/N=N/c1[nH]cnc1C(N)=O [Dacarbazine]	Q4	0	-13	17	0	–
O=C1CN(/N=C/c2ccc(-c3ccc([N+](=O)[O-])cc3)o2)C(O)=N1 [Dantrolene]	Q4	0	-6	14	1	–
Nc1ccc(S(=O)(=O)c2ccc(N)cc2)cc1 [Dapsone]	Q4	0	-23	11	1	–
COc1cccc2c1C(=O)c1c(O)c3c(c(O)c1C2=O)C[C@@](O)(C(C)=O)C[C@@H]3O[C@H]1C[C@H](N)[C@H](O)[C@H](C)O1 [Daunorubicin]	–	57	–	–	77	inhibition at 10 µM [2, 11]: 116%; inhibition at 10 µM [3, 12]: 114%; Quadrant (FIG. 5b) [4, 13]: Q2
Cc1c(O)c(=O)ccn1C [Deferiprone]	Q4	0	31	18	1	–
CC(=O)C1C(=O)C=C(C)OC1=O (stereo not drawn) [Dehydroacetic Acid]	Q4	0	-36	2	0	–
CNCCCN1c2ccccc2CCc2ccccc21 [Desipramine hydrochloride, reference compound]	–	4	–	–	1	pIC50 ([2]; Rattus norvegicus, Microglia, Table 7, read-out: fib_IC50): 5.79; inhibition at 10 µM [2, 11]: -2%; inhibition at 10 µM [3, 12]: 83%; pIC50 ([3]; Rattus norvegicus, Microglia, Table 7, read-out: LPS_IC50): 8.70; Activity [4]: fib/LPS; Quadrant (FIG. 5b) ([4]; Table 2, screen at 10 μM): Q1; Quadrant (FIG. 5b) [4, 13]: Q1
CN(C)CC(c1ccc(O)cc1)C1(O)CCCCC1 (stereo not drawn) [Desvenlafaxine]	Q4	1	13	3	1	–
CC(=O)OCC(=O)[C@@]1(O)[C@H](C)C[C@H]2[C@@H]3CCC4=CC(=O)C=C[C@]4(C)[C@@]3(F)[C@@H](O)C[C@@]21C [Dexamethasone acetate, reference compound]	–	7	–	–	4	inhibition at 10 µM ([2]; Rattus norvegicus, Microglia): 112%; IC50 ([2]; Rattus norvegicus, Microglia, read-out: fib_IC50 (uM)): 0.002 µM; inhibition at 10 µM ([3]; Rattus norvegicus, Microglia, 48 h): 105%; IC50 ([3]; Rattus norvegicus, Microglia, read-out: LPS_IC50 (uM)): 0.002 µM; Quadrant (FIG. 5b) [4]: Q2
CN(C)CC[C@@H](c1ccc(Cl)cc1)c1ccccn1 [Dexchlorpheniramine]	–	0	-8	11	1	Quadrant (FIG. 5b) [4]: Q4
CC(C)Cc1ccc([C@H](C)C(=O)O)cc1 [Dexibuprofen]	Q4	0	-3	13	1	–
CC(=O)Nc1c(I)c(NC(C)=O)c(I)c(C(=O)O)c1I [Diatrizoate]	–	0	–	–	0	inhibition at 10 µM ([2]; Rattus norvegicus, Microglia): 4%; inhibition at 10 µM ([3]; Rattus norvegicus, Microglia): 5%; Quadrant (FIG. 5b) [4]: Q4
COc1ccc(Cc2cnc(N)nc2N)cc1OC [Diaveridine]	Q4	1	-8	13	1	–
NC[C@@H]1CC[C@@H](N)[C@@H](O[C@H]2[C@H](O)[C@@H](O[C@H]3O[C@H](CO)[C@@H](O)[C@H](N)[C@H]3O)[C@H](N)C[C@@H]2N)O1 [Dibekacin]	–	1	–	–	1	inhibition at 10 µM ([2]; Rattus norvegicus, Microglia): 10%; inhibition at 10 µM ([3]; Rattus norvegicus, Microglia): 20%; Quadrant (FIG. 5b) [4]: Q4
COP(=O)(OC)OC=C(Cl)Cl [Dichlorvos]	Q4	1	-1	19	1	–
O=c1oc2ccccc2c(O)c1Cc1c(O)c2ccccc2oc1=O [Dicoumarol]	Q4	0	-24	18	1	–
O=c1[nH]cnc2c1ncn2[C@H]1CC[C@@H](CO)O1 [Didanosine]	Q4	0	-8	-2	1	–
CC/C(=C(/CC)c1ccc(O)cc1)c1ccc(O)cc1 [Diethylstilbestrol]	–	0	–	–	1	inhibition at 10 µM ([2]; Rattus norvegicus, Microglia): -26%; inhibition at 10 µM ([3]; Rattus norvegicus, Microglia): 16%; Quadrant (FIG. 5b) [4]: Q4
O=C(O)c1cc(-c2ccc(F)cc2F)ccc1O [Diflunisal]	Q4	0	-62	15	0	–
COc1ccc([C@@H]2Sc3ccccc3N(CCN(C)C)C(=O)[C@@H]2OC(C)=O)cc1 [Diltiazem Hydrochloride]	Q4	0	–	–	0	Fibrin % inhibition [2, 14]: −5%; LPS % inhibition ([3]; primary microglia HTS, LPS stimulation, compounds at 10 μM, 10 µM): 15%
COc1ccc([C@@H]2Sc3ccccc3N(CCN(C)C)C(=O)[C@@H]2OC(C)=O)cc1 [Diltiazem]	Q4	0	–	9	1	Fibrin % inhibition [2, 14]: 21%
OCC(S)CS (stereo not drawn) [Dimercaptopropanol, Dimercaprol]	Q4	–	–	–	–	LPS % cell toxicity (primary rat microglia [1]): 0%; Fibrin % inhibition [2, 6]: 49%; LPS % inhibition [3, 7]: 16%; Fibrin % cell toxicity (primary rat microglia [5]): 1%
Cc1ncc([N+](=O)[O-])n1C [Dimetridazole]	Q4	1	-16	15	1	–
CCN(CC)C(=S)SSC(=S)N(CC)CC [Disulfiram]	–	75	–	–	90	inhibition at 10 µM [2, 11]: 114%; inhibition at 10 µM [3, 12]: 131%; Quadrant (FIG. 5b) [4, 13]: Q2
O=c1[nH]c2ccccc2n1CCCN1CCC(n2c(=O)[nH]c3cc(Cl)ccc32)CC1 [Domperidone]	–	0	–	–	1	inhibition at 10 µM ([2]; Rattus norvegicus, Microglia): 20%; inhibition at 10 µM ([3]; Rattus norvegicus, Microglia): 15%; Quadrant (FIG. 5b) [4]: Q4
NCCc1ccc(O)c(O)c1 [Dopamine]	–	0	–	–	1	inhibition at 10 µM ([2]; Rattus norvegicus, Microglia): -17%; inhibition at 10 µM ([3]; Rattus norvegicus, Microglia): 9%; Quadrant (FIG. 5b) [4]: Q4
